Where two headings read alike, the source gives them in different places.
Columns and labels:
[1] = rats; cited from earlier work
[2] = mice; cited from earlier work
[3] = tested on: herpes simplex virus type 1 (HSV-1) of the KOS strain; format: in vivo, mice of the C57B1/6 lineage
Protocol: All the animals included in the experimental process were 14-week old female mice of the C57B1/6 lineage. Between two and three adult mice were used per analysis group and between 13 and 25 neonates, depending on the availability of animals. […] All the animals went through a quarantine period and were treated with strict precautions against contamination during inoculation and dissection. The animals were intraperitoneally infected with a dose 10^6 pfu of herpes simplex virus type 1 (HSV-1) of the KOS strain (provided by el Dr. L. Carrasco, Centro de Biología Molecular Severo Ochoa, Universidad Autónoma of Madrid). […] The first group of mice was not given any treatment. […] Therefore the antiviral concentration administered per dose and mouse was 0.25 mg (10 mg/kg per mouse, far from the toxicity limit of 80 mg/kg cited above), with a total daily dose of 0.75 mg/day.
The dissected organs in the adult animals were the following: blood, ovaries, adrenal gland, spinal cord, brain, cerebellum and trigeminal ganglia. The entire brain was separated into three rough regions: midbrain, ventricles and cerebral cortex. In the neonates, the dissected organs were blood, spinal cord and encephalon. DNA was extracted using conventional methods (NucleoSpin®, Cat. K3053-2, ClonTech, USA). The viral load of the different organs was analyzed by means of quantitative PCR. […] Primers specific for the sequence of the viral polymerase (pol) gene were used to detect the virus (SEQ. ID. NO: 3 and SEQ. ID. NO: 4) (120 bp amplicon). The PCR conditions were one cycle of 95° C. for 10 minutes, followed by 45 cycles at 95° C. for 30 seconds, 55° C. (for β-actin) or 60° C. (for viral polymerase) for 30 seconds, and a last cycle of 72° C. for 40 seconds. The virus concentration range used for optimizing the quantitative PCR standard curve was expressed as plaque forming units (pfu). For calibrating the β-actin gene, nanograms were used as the unit of this endogenous gene. The identity of the amplified products was checked by analysis of the denaturation curves, by gel electrophoresis and restriction analysis.

[4] = rabbits; cited from earlier work
[5] = tested on: HSV-1; assay: Acyclovir ad libitum in drink, vertical mother-progeny transmission model (Example 3); format: in vivo, mice; details: acyclovir in drinking water ad libitum, high dose (final daily dose 1.50 mg), from the day of the vaginal plug
Protocol: Assuming that a mouse drinks about 3 ml a day, 2 working dilutions ([…] so that the final daily dose was 0.75 mg, and […] so that the final daily dose was 1.50 mg) were used.

For `Nc1nc2c(ncn2COCCO)c(=O)[nH]1` [acyclovir], the teratogenicity / embryotoxicity [1] is given as “non-teratogenic or embryotoxic”, the teratogenicity / embryotoxicity [2] is given as “non-teratogenic or embryotoxic” and the “viral loads both in the mothers and in the progeny (quantitative PCR)” value ([3]; daily dose of 0.75 mg, both administration routes (oral and subcutaneous), FIG. 7) is given as “significant reduction”. For the same molecule, the “viral levels in all the analyzed organs of the descendants” value ([3]; oral acyclovir administered to the mothers, 0.75 mg/day) was “almost complete elimination”, the mortality of neonates ([3]; oral acyclovir to infected mothers, 0.25 mg per dose three times a day (0.75 mg/day), none of the 17 animals) was “no mortality” and the “virus levels in blood and in the trigeminal ganglia of the mothers” value ([3]; oral acyclovir, 0.75 mg/day) was “virtually undetectable”. For the same molecule, the “mortality rate of neonates” value ([3]; subcutaneous acyclovir to infected mothers, 0.25 mg per dose three times a day (0.75 mg/day), from five days before crossbreeding until birth, 1 out of 25) was 4.0%, the “levels of the virus in all the analyzed organs of the mother and in the progeny's CNS” value ([3]; subcutaneous acyclovir, 0.75 mg/day) was “considerably lower levels” and the teratogenicity / embryotoxicity [4] was “non-teratogenic or embryotoxic”. The “survival of the animals” value [5] was “higher”.
